Patent US20260199339A1, “COMBINATION THERAPY FOR TREATING ABNORMAL CELL GROWTH” (Verastem, Inc., priority 2020, published 2026)
Entries after “also recorded” stand apart in the source; their conditions may differ.

Columns and labels:
TOV21G = experiment: Cell viability after VS-6766 treatment, TOV21G; type: cell-based, human; details: 48 hours
[1] = test system: CT26 KRAS (G12D)-mutant colorectal cancer mouse models; experiment: Syngeneic CT26 tumor mouse study, VS-6766 and/or anti-PD-1; type: in vivo; details: VS-6766 0.5 mg/kg PO QD x 28 days; anti-PD-1 60 μg/mouse (3 mg/kg) IP BIW x 4 doses; Balb/c mice; FIG. 2A, 2B
Protocol: CT26 tumor cells were obtained from ATCC and Balb/c mice were obtained from Shanghai Lingchang Biotechnology. Tumor challenge was initiated by subcutaneous inoculation of 3×10^5 CT26 tumor cell suspensions into the right flank of recipient mice. Tumor sizes (mm3) were measured and calculated as described above. Once tumors reached an average volume of 50-80 mm3, mice were sorted into 4 groups (n=10): vehicle (5% DMSO, 10% HPCD in sterile water, oral dosing (PO), once per day (QD), 28 days)+isotype control ([…] intraperitoneally (IP) biweekly, 4 doses; rat IgG2a clone 2A3, BioXcell), VS-6766 (0.5 mg/kg PO QD, 28 days)+isotype control, anti-PD-1 (60 μg/mouse IP biweekly, 4 doses; clone RMP1-14, BioXCell), and VS-6766+anti-PD-1. Tumors and body weights were measured 3 times per week for the duration of the study. At the time of routine monitoring, the animals were checked for any effects of tumor growth and treatments on normal behavior such as mobility, food and water consumption (by looking only), and body weight gain/loss, eye/hair matting and any other abnormal effect. For Kaplan-Meier analysis, an event was defined by death or tumor growth beyond 2,000 mm^3.

WM115 = experiment: Cell viability after VS-6766 treatment, WM115; type: cell-based, human; details: WM115, 48 hours
IGR-1 = experiment: Cell viability after VS-6766 treatment, IGR-1; type: cell-based, human; details: IGR-1, 48 hours
[2] = test system: KRAS/BRAF mutant human cancer cell lines; experiment: RNA extraction and qRT-PCR of MHC-I antigen presentation genes; type: cell-based; details: FIG. 1
Protocol: RNA Extraction and qRT-PCR
Cells were seeded into 6-cm dishes and after an incubate overnight (17~22 hrs) cells were treated with VS-6766 for 48 hours at a concentration that gave an 80% cell viability (1 μM for A549, TOV21G and WM115, and 300 nM for SKMEL5 and IGR-1). RNA was extracted using RNeasy® Plus Mini kit (Qiagen) and converted to cDNA using the cDNA by High-Capacity cDNA Reverse Transcription Kit (Applied Biosystems). TaqMan qPCR was run using HLA-A, B2M, TAP1 and TAP-2 probes from Applied Biosystems. VIC-GAPDH probe as the house keeping gene. Each PCR reaction will be run in triplicate wells. Expression levels were computed as the difference (ΔCT) between the target gene CT and GAPDH CT.

SKMEL5 = experiment: Cell viability after VS-6766 treatment, SKMEL5; type: cell-based, human; details: SKMEL5, 48 hours
A549 = experiment: Cell viability after VS-6766 treatment, A549; type: cell-based, human; details: A549, 48 hours

CNS(=O)(=O)Nc1nccc(Cc2c(C)c3ccc(Oc4ncccn4)cc3oc2=O)c1F [VS-6766]
concentration that gave an 80% cell viability (TOV21G): 1 µM | tumor growth / antitumor efficacy (tumor volume) [1]: delay tumor growth | concentration that gave an 80% cell viability (WM115): 1 µM | concentration that gave an 80% cell viability (IGR-1): 300 nM | HLA-A expression ([2]; 48 h, qRT-PCR): increased | TAP1 expression ([2]; 48 h, qRT-PCR): increased | TAP2 expression ([2]; 48 h, qRT-PCR): increased | β2M expression ([2]; 48 h, qRT-PCR): increased | tumor antigen presentation (markers associated with antigen presentation, MHC-I expression) ([2]; multiple KRAS/BRAF mutant human cancer cell lines): increase tumor antigen presentation; also recorded: upregulates | concentration that gave an 80% cell viability (SKMEL5): 300 nM | concentration that gave an 80% cell viability (A549): 1 µM
